Data: patent publication US6723567B1, “Screening method for apoptosis and necrosis” (Aponetics Ltd., priority 1998, dated 2004)
Entries after “also recorded” stand apart in the source; their conditions may differ. Numbered stars: 1 amine (or outer) side, 2 acyl side, 3 side chain; on linkers, the order of the positions; unused ones are H or OH. Bridge positions count the residues as written; N and C are the ends. Square brackets hold non-standard residues; d marks the D form. Peptide text beside a SMILES is read from it. I, II: the chains in the order shown. Actinocin(9to1) = Cc1c2oc3c(C)ccc(C(=O)[*:1])c3nc-2c(C(=O)[*:2])c(N)c1=O; NMeV = CN[C@H](C(=O)O)C(C)C; Sar = CNCC(=O)O

What was measured:
A20GFP = test: ActD/CHX interference with the GFP apoptosis assay in A20GFP; assay type: cell-based, murine; details: for inhibition of sFasL SN induced apoptosis: 5 μg/ml ActD and/or 10 μg/ml CHX with 100 μl sFasL SN, 10 hours; for fluorescence intensity / fluorescing capacity of A20GFP: 5 μg/ml ActD and/or 10 μg/ml CHX, 10 hours at 37° C.
Method: To find out whether the fluorescence of A20GFP and the GFP apoptosis assay as described in example 7 is dependent on the de novo transcription and protein synthesis, Act D (pharmacy of the University Hospital, Basel), a RNA synthesis inhibitor, and Cycloheximide (Sigma), a protein synthesis inhibitor, were tested in our experimental protocol. After washing A20GFP cells with PBS, 250000 cells were aliquoted in FACS-tubes and incubated with:
a) Tube 1 (control): 500 μl medium complete (MC)
b) Tube 2: 100 μl sFasL SN and 400 μl MC
c) Tube 3: 500 μl MC and 5 μg/ml ActD
d) Tube 4: 400 μl MC, 100 μl sFasL SN, 5 μg/ml ActD
e) Tube 5: 500 μl MC and 10 μg/ml CHX
f) Tube 6: 400 μl MC, 100 μl sFasL SN and 10 μg/ml CHX
g) Tube 7: 500 μl MC, 5 μg/ml Act D and 10 μg/ml CHX
h) Tube 8: 400 μl MC, 100 μl sFasL SN, 5 μg/ml Act D and 10 μg/ml CHX
Tubes 1-8 (a-h) were incubated for 10 hours at 37° C. The fluorescing status of the cells was assayed at 10 hours post treatment.

JurkatGFP = test: Apoptosis assay: induction of apoptosis in JurkatGFP by recombinant human TRAIL; assay type: cell-based
Method: This apoptosis assay has been performed with recombinant human TRAIL, a known cell death inducer in Jurkat cells. 250,000 JurkatGFP cells were aliquoted in two different FACS-tubes.
Tube 1: (control): cells were incubated with 500 μl RPMI medium,
Tube 2: cells were incubated with 25 μl recombinant human TRAIL and 475 μl RPMI medium.
Both tubes were incubated for 18 hours at 37° C. After incubation the test tubes were immediately measured without prior washing.

| Molecule | inhibition of sFasL SN induced apoptosis (A20GFP) | fluorescence intensity / fluorescing capacity of A20GFP (A20GFP) | induction of apoptosis in JurkatGFP (JurkatGFP; 25 μl recombinant human TRAIL in 500 μl, 18 hours at 37° C.) | dose dependence of apoptosis induction in JurkatGFP (JurkatGFP; data not shown) |
| --- | --- | --- | --- | --- |
| Cc1c2oc3c(C)ccc(C(=O)N[C@@H]4C(=O)N[C@H](C(C)C)C(=O)N5CCC[C@H]5C(=O)N(C)CC(=O)N(C)[C@@H](C(C)C)C(=O)O[C@@H]4C)c3nc-2c(C(=O)N[C@@H]2C(=O)N[C@H](C(C)C)C(=O)N3CCC[C@H]3C(=O)N(C)CC(=O)N(C)[C@@H](C(C)C)C(=O)O[C@@H]2C)c(N)c1=O [ActD, Actinomycin D] (I: T[dV]P[Sar][NMeV] / II: T[dV]P[Sar][NMeV]; ester I:1-I:C, II:1-II:C; linker I:N-II:N via Actinocin(9to1)) | nor do they inhibit sFasL SN induced apoptosis | do not substantially interfere with the fluorescing capacity of A20GFP; also recorded: Neither a reduction of GFP-associated fluorescence | – | – |
| C[C@@H]1C[C@@H]([C@H](O)CC2CC(=O)NC(=O)C2)C(=O)[C@@H](C)C1 [CHX, Cycloheximide] | nor do they inhibit sFasL SN induced apoptosis | do not substantially interfere with the fluorescing capacity of A20GFP; also recorded: Neither a reduction of GFP-associated fluorescence | – | – |
| recombinant human TRAIL: TNF-related apoptosis inducing ligand, a known cell death inducer in Jurkat cells (protein, UniProt P50591 1-281, looked up) Tumor necrosis factor ligand …: MAMMEVQGGPSLGQTCVLIVIFTVLLQSLCVAVTYVYFTNELKQMQDKYSKSGIACFLKEDDSYWDPNDEESMNSPCWQVKWQLRQLVRKMILRTSEETISTVQEKQQNISPLVRERGPQRVAAHITGTRGRSNTLSSPNSKNEKALGRKINSWESSRSGHSFLSNLHLRNGELVIHEKGFYYIYSQTYFRFQEEIKENTKNDKQMVQYIYKYTSYPDPILLMKSARNSCWSKDAEYGLYSIYQGGIFELKENDRIFVSVTNEHLIDMDHEASFFGAFLVG | – | – | induced apoptosis in JurkatGFP cells | dose dependent manner |
